Measurements reported in EP0061208A1, “Insecticidal control of ectoparasites” (JANSSEN PHARMACEUTICA N.V., priority 1981, dated 1982).

System: lice
Assay: in-vivo experiment: single pour-on application to louse-infested sheep, evaluation of louse infestation
Set-up: key: +: numphs or adults were detected; -: no live lice were found
Details: single pour-on along the back, solution 5% by weight in 2-(Z-butoxyethoxy)ethanol; for louse infestation, weeks 1: after 1 week; for louse infestation, weeks 2: after 2 weeks; for louse infestation, weeks 3: after 3 weeks; for louse infestation, weeks 4: after 4 weeks; for louse infestation, weeks 6.5: after 6.5 weeks
Procedure: The efficacy of the ectoparasiticidal method and compositions of the present invention is illustrate by the following in-vivo experiment: • 4 moderately louse-infested sheep were given a single pour-on application of a solution comprising 5% by weight of cypermetrin • in 2-(Z-butoxyethoxy)ethanol. • The louse infestation was evaluated after 1, 2, 3, 4 and 6. 5 weeks. The evaluation of the louse-infestation is illustrated in table 1 wherein • + means that numphs or adults were detected, and • - means that no live lice were found.

CC1(C)C(C=C(Cl)Cl)C1C(=O)OC(C#N)c1cccc(Oc2ccccc2)c1 (stereo not shown) [cypermetrin, [[cyano(3-phenoxyphenyl)]methyl] 2-(2,2-dichloroethenyl)-3,3-dimethylcyclopropanecarboxylate]
louse infestation, weeks 1 (dose 10 mg/kg, 10 mg/kg): + and - | louse infestation, weeks 2 (dose 10 mg/kg, 10 mg/kg): + and - | louse infestation, weeks 3 (dose 10 mg/kg, 10 mg/kg): + and - | louse infestation, weeks 4 (dose 10 mg/kg, 10 mg/kg): + and - | louse infestation, weeks 6.5 (dose 10 mg/kg): - | louse infestation, weeks 1 (dose 20 mg/kg): - | louse infestation, weeks 2 (dose 20 mg/kg): - | louse infestation, weeks 3 (dose 20 mg/kg): - | louse infestation, weeks 4 (dose 20 mg/kg): - | louse infestation, weeks 6.5 (dose 20 mg/kg): -
